Experimental data from patent US20230141603A1, “BENZODIAZEPINE DERIVATIVES AS GABA A GAMMA1 PAM” (Hoffmann-La Roche Inc., priority 2021, published 2023).

The compounds below were run against T1, h-GABAA α5β2γ1 (Homo sapiens, UniProt P31644+Q8N1C3) (assay: Radioligand binding assay, [3H]RO7239181 competition, HEK293F membranes).
T1 construct: expressed in transfected cells; host or cells: HEK293F cells (ThermoFisher R79007), membranes
T1 sequence (P31644 32-462): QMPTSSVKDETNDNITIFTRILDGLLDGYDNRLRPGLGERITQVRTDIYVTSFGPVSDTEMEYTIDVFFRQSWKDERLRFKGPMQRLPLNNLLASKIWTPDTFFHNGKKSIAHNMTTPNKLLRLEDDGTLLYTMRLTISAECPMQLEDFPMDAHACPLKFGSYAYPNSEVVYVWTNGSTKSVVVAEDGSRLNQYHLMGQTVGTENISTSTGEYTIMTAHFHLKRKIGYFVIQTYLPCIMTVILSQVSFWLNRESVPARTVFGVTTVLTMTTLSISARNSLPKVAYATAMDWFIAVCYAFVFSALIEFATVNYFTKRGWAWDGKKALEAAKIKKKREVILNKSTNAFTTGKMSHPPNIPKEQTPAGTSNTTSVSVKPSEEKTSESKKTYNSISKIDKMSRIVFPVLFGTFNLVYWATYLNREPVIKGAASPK
T1 sequence (P47870 25-512 partner limits assumed): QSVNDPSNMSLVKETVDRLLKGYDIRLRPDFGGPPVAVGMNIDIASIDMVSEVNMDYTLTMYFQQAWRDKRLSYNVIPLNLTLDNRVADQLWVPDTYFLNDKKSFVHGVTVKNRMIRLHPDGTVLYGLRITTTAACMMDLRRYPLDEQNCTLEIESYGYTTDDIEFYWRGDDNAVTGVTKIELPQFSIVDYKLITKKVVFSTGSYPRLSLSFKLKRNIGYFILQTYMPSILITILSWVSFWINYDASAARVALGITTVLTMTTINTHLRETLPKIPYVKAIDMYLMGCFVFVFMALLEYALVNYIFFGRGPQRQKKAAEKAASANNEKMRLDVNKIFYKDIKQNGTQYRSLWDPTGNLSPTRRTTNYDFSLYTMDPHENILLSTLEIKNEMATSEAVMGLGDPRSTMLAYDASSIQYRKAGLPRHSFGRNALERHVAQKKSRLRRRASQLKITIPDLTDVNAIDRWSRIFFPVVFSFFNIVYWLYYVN
T1 sequence (Q8N1C3 36-465): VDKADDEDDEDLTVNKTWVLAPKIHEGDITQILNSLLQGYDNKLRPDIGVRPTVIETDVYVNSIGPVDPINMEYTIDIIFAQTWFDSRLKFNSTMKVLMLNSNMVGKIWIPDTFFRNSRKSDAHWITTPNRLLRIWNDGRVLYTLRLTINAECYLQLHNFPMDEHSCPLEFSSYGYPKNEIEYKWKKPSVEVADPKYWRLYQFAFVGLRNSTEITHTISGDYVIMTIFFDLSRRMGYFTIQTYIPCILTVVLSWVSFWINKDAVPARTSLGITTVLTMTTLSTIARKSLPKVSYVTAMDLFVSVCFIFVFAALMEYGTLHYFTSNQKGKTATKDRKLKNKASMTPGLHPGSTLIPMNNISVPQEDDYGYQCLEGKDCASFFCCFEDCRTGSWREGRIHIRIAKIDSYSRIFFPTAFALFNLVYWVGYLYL
Method: The affinity of compounds at GABAA γ1 subunit-containing receptors was measured by competition for [^3H]RO7239181 (67.3 Ci/mmol; Roche) binding to membranes from HEK293F cells (ThermoFisher R79007) expressing human (transiently transfected) receptors of composition […], α2β2γ1, α1β2γ1. For better protein expression of the α2 subunit-containing receptors, the 28 amino acid long signal peptide (Met1 to Ala28) of the human GABAA α2 subunit was substituted by the 31 amino acid long signal peptide (Met1 to Ser31) of human GABAA α5 subunit.
Harvested pellets from HEK293F cells expressing the different GABAA receptor subtypes were resuspended in Mannitol Buffer pH 7.2-7.4 (Mannitol 0.29M, Triethylamine 10 mM, Acetic acid 10 mM, EDTA 1 mM plus protease inhibitors (20 tablets Complete, Roche Diagnostics Cat. No. 05 056 489 001 per liter)), washed two times and then resuspended at 1:10 to 1:15 dilution in the same buffer. Cell disruption was performed by stirring the suspension in a Parr vessel #4637 at 435 psi for 15 minutes, and then the suspensions were centrifuged at 1000×g for 15 minutes at 4° C. (Beckman Avanti J-HC; rotor JS-4.2). The supernatant (S1) was transferred in a 21 Schott flask and the pellet (P1) was resuspended with Mannitol Buffer up to 175 ml. The resuspended pellet was transferred into a 250 ml Corning centrifugal beaker and centrifuged at 1500×g for 10 minutes at 4° C. (Beckman Avanti J-HC; rotor JS-4.2). The supernatant (S1) was then transferred in the 21 Schott flask and the pellet was discarded. The supernatants (S1) were centrifuged in 500 ml Beckman polypropylene centrifugal beaker at 15′000×g for 30 minutes at 4° C. (Beckman Avanti J-20 XP; rotor JLA-10.500). The pellet (P2) was resuspended with Mannitol Buffer 1:1 and frozen at −80° C. The supernatant (S2) was centrifuged in 100 ml Beckman polypropylene centrifugal tubes at 48000×g for 50 minutes at 4° C. (Beckman Avanti J-20 XP; rotor JA-18). The supernatant (S3) was discarded and the pellet (P3) was resuspended with 1:1 Mannitol Buffer. The P2 and P3 protein concentration was determined with the BIORAD Standard assay method with bovine serum albumin as standard and measured on the NANO-Drop 1000. The membrane suspension was aliquots (500 μl per tube) and stored at −80° C. until required. Membrane homogenates were resuspended and polytronised (Polytron PT1200E Kinematica AG) in Potassium Phosphate 10 mM, KCl 100 mM binding buffer at pH 7.4 to a final assay concentration determined with a previous experiment.
Radioligand binding assays were carried out in a volume of 200 μL (96-well plates) which contained 100 μL of cell membranes, [^3H]RO7239181 at a concentration of 1.5 nM (α5β2γ1) or 20-30 nM (α1β2γ1, α2β2γ1) and the test compound in the range of [0.3-10000]×10^−9 M. Nonspecific binding was defined by 10×10^−6 (α5β2γ1) and 30×10^−6 M RO7235136 and typically represented less than 5% (α5β2γ1) and less than 20% (α1β2γ1, α2β2γ1) of the total binding. Assays were incubated to equilibrium for 1 hour at 4° C. and then, membranes were filtered onto unifilter (96-well white microplate with bonded GF/C filters preincubated 20-50 minutes in 0.3% Polyethylenimine) with a Filtermate 196 harvester (Packard BioScience) and washed 4 times with cold Potassium Phosphate 10 mM pH 7.4, KCl 100 mM binding buffer. After drying, filter-retained radioactivity was detected by liquid scintillation counting. Ki values were calculated using Excel-Fit (Microsoft) and are the means of two determinations.
`Cl.NCc1nnc2n1-c1ccc(Br)c(Cl)c1C(c1c(F)cccc1F)=NC2` [Example 36, [8-bromo-7-chloro-6-(2,6-difluorophenyl)-4H-[1,2,4]triazolo[4,3-a][1,4]benzodiazepin-1-yl]methanamine hydrochloride] gave a Ki of 1.8 nM. With `Clc1cccnc1C1=NCc2nnc(-c3ccncn3)n2-c2ccc(Br)c(Cl)c21` [Example 44, 8-bromo-7-chloro-6-(3-chloro-2-pyridyl)-1-pyrimidin-4-yl-4H-[1,2,4]triazolo[4,3-a][1,4]benzodiazepine] the Ki was 1.4 nM. `Cc1nnc2n1-c1ccc(Br)c(Cl)c1C(c1ncccc1F)=NC2` [Example 24, 8-bromo-7-chloro-6-(3-fluoro-2-pyridyl)-1-methyl-4H-[1,2,4]triazolo[4,3-a][1,4]benzodiazepine] was tested, and the Ki was 3.5 nM. Work on `Fc1cccc(F)c1C1=NCc2nncn2-c2ccc(C(F)(F)F)c(Cl)c21` [Example 37, 7-chloro-6-(2,6-difluorophenyl)-8-(trifluoromethyl)-4H-[1,2,4]triazolo[4,3-a][1,4]benzodiazepine] yielded a Ki of 2.1 nM. Compound `O=c1[nH]nc2n1-c1ccc(Br)c(Cl)c1C(c1ccccc1F)=NC2` [Example 26, 8-bromo-7-chloro-6-(2-fluorophenyl)-2,4-dihydro-[1,2,4]triazolo[4,3-a][1,4]benzodiazepin-1-one] has a Ki of 2.3 nM. Work on `Fc1cccc(F)c1C1=NCc2nnc(-c3ccncn3)n2-c2ccc(Br)c(Br)c21` [Example 43, 7,8-dibromo-6-(2,6-difluorophenyl)-1-pyrimidin-4-yl-4H-[1,2,4]triazolo[4,3-a][1,4]benzodiazepine] yielded a Ki of 1.4 nM. Work on `Cc1nnc2n1-c1ccc(C(F)(F)F)c(Cl)c1C(c1ncccc1F)=NC2` [Example 78, 7-chloro-6-(3-fluoro-2-pyridyl)-1-methyl-8-(trifluoromethyl)-4H-[1,2,4]triazolo[4,3-a][1,4]benzodiazepine] yielded a Ki of 7.8 nM. With `Fc1cccc(F)c1C1=NCc2nnc(-c3cccnn3)n2-c2ccc(Br)c(Br)c21` [Example 42, 7,8-dibromo-6-(2,6-difluorophenyl)-1-pyridazin-3-yl-4H-[1,2,4]triazolo[4,3-a][1,4]benzodiazepine] the Ki was 0.9 nM. Compound `COc1ccc2c(c1Cl)C(c1c(F)cccc1F)=NCc1nnc(C3CC3)n1-2` [Example 79, 7-chloro-1-cyclopropyl-6-(2,6-difluorophenyl)-8-methoxy-4H-[1,2,4]triazolo[4,3-a][1,4]benzodiazepine] has a Ki of 6.8 nM. Compound `Fc1ccccc1C1=NCc2nncn2-c2ccc(Br)c(Cl)c21` [Example 8, 8-bromo-7-chloro-6-(2-fluorophenyl)-4H-[1,2,4]triazolo[4,3-a][1,4]benzodiazepine] has a Ki of 2.3 nM. In the case of `Fc1cccc(F)c1C1=NCc2nnc(-c3ccncn3)n2-c2ccc(Cl)c(Cl)c21` [Example 12, 7,8-dichloro-6-(2,6-difluorophenyl)-1-pyrimidin-4-yl-4H-[1,2,4]triazolo[4,3-a][1,4]benzodiazepine], the Ki is reported as 2.3 nM. Work on `Fc1cccnc1C1=NCc2nnc(C3CC3)n2-c2ccc(Cl)c(Cl)c21` [Example 65, 7,8-dichloro-1-cyclopropyl-6-(3-fluoro-2-pyridyl)-4H-[1,2,4]triazolo[4,3-a][1,4]benzodiazepine] yielded a Ki of 7.8 nM. Work on `Fc1ccccc1C1=NCc2nnc(-c3cccnn3)n2-c2ccc(Br)c(Cl)c21` [Example 3, 8-bromo-7-chloro-6-(2-fluorophenyl)-1-pyridazin-3-yl-4H-[1,2,4]triazolo[4,3-a][1,4]benzodiazepine] yielded a Ki of 1.5 nM. `Fc1cccc(F)c1C1=NCc2nnc(-c3cccnn3)n2-c2ccc(Cl)c(Cl)c21` [Example 14, 7,8-dichloro-6-(2,6-difluorophenyl)-1-pyridazin-3-yl-4H-[1,2,4]triazolo[4,3-a][1,4]benzodiazepine] showed a Ki of 0.8 nM. `Cc1nnc2n1-c1ccc(C(F)(F)F)c(Cl)c1C(c1c(F)cccc1F)=NC2` [Example 40, 7-chloro-6-(2,6-difluorophenyl)-1-methyl-8-(trifluoromethyl)-4H-[1,2,4]triazolo[4,3-a][1,4]benzodiazepine] showed a Ki of 1.9 nM. `Cc1nnc2n1-c1ccc(I)c(Cl)c1C(c1c(F)cccc1F)=NC2` [Example 41, 7-chloro-6-(2,6-difluorophenyl)-8-iodo-1-methyl-4H-[1,2,4]triazolo[4,3-a][1,4]benzodiazepine] was tested, and the Ki was 0.8 nM. For `Fc1ccccc1C1=NCc2nnc(-c3ccncn3)n2-c2ccc(Cl)c(Cl)c21` [Example 18, 7,8-dichloro-6-(2-fluorophenyl)-1-pyrimidin-4-yl-4H-[1,2,4]triazolo[4,3-a][1,4]benzodiazepine], the Ki was 2.6 nM. `COCCc1nnc2n1-c1ccc(Cl)c(Cl)c1C(c1c(F)cccc1F)=NC2` [Example 19, 7,8-dichloro-6-(2,6-difluorophenyl)-1-(2-methoxyethyl)-4H-[1,2,4]triazolo[4,3-a][1,4]benzodiazepine] showed a Ki of 2.5 nM. `Cc1ccc2c(c1Cl)C(c1c(F)cccc1F)=NCc1nnc(-c3ccncn3)n1-2` [Example 49, 7-chloro-6-(2,6-difluorophenyl)-8-methyl-1-pyrimidin-4-yl-4H-[1,2,4]triazolo[4,3-a][1,4]benzodiazepine] gave a Ki of 1.7 nM. In the case of `Fc1cccc(F)c1C1=NCc2nnc(-c3cccnn3)n2-c2ccc(C(F)(F)F)c(Cl)c21` [Example 38, 7-chloro-6-(2,6-difluorophenyl)-1-pyridazin-3-yl-8-(trifluoromethyl)-4H-[1,2,4]triazolo[4,3-a][1,4]benzodiazepine], the Ki is reported as 1.9 nM. Work on `Fc1cccnc1C1=NCc2nncn2-c2ccc(Cl)c(Cl)c21` [Example 60, 7,8-dichloro-6-(3-fluoro-2-pyridyl)-4H-[1,2,4]triazolo[4,3-a][1,4]benzodiazepine] yielded a Ki of 7.5 nM.
